Experimental data: ChEMBL document CHEMBL5724803, “Viability screening in matched tumor and normal assay results for EUbOPEN Chemogenomics Library” (2024)

system: Colon organoid; format: functional, Homo sapiens

SMILES	Cell Viability Ratio
CN1CCN(C(=O)C(C)(C)c2ccc(C(=O)Nc3cn4cc(-c5cc(C(C)(C)C)cc(C(C)(C)C)c5)ccc4n3)cc2)CC1 [T3-CLK-N]	0.9471
COc1cccc(CNC(=O)c2nc3scc(CN(C)Cc4ccccc4)c3c(=O)[nH]2)c1 [T-26f]	1.048
CC(C)CC(=O)N1CCc2nc(-c3ccc(Br)cc3)nc(N(C)Cc3ccccc3)c2C1 [THPP-1-NC]	1.2658
COCCOc1nc(-c2ccc(Cl)nc2)nc2c1CN(C(=O)c1ncn3ccccc13)CC2 [THPP-1]	1.038
Cc1cnc(-c2cc(Cl)ccc2F)cc1-n1c(=O)n(CC(N)=O)c2cnccc21 [TP-008]	1.1125
Cn1nc(C(F)(F)F)cc1-c1cnc(N2CCc3cc(S(=O)(=O)Nc4c(F)cc(Cl)cc4F)cc(N4CCCC4=O)c32)nc1 [TP-020]	0.9629
Nc1cnc(N2CCc3cc(S(=O)(=O)Nc4c(F)cc(Cl)cc4F)cc(N4CCCC4=O)c32)nc1 [TP-020n]	1.046
Cc1cc(-n2nc(Cc3cc(F)cc(C(F)(F)F)c3)nc2C)ccc1C(N)=O [TP-024]	0.8967
Cc1nc(Cc2cccc(C(F)(F)F)c2)sc1-c1ccc(C(N)=O)nc1 [TP-024n]	1.0424
CN1C(=O)[C@@H](N2CCc3c(nn(Cc4ccccc4)c3Br)C2=O)COc2ccccc21 [TP-030-2]	1.065
Cc1ccc2[nH]c(CNCCCc3ccncc3)cc(=O)c2c1 [UCSF924NC]	1.116
Cc1ccc2nc(CNCCCOc3ccccc3)cc(O)c2c1 [UCSF924]	1.046
CNC(=O)c1ccccc1Nc1cc(Nc2ccc(N3CCOCC3)cc2OC)ncc1C(F)(F)F [VS-4718]	0.4552
O=C(NNS(=O)(=O)c1ccccc1)c1cc(-c2ccnnc2)ccc1F [WM-2474]	1.138
Nc1nc(NCc2ccccc2)nc(-c2cccc(CO)c2)n1 [ZINC32547799]	1.205
